Measured values taken from US20090215813A1, “HISTONE DEACETYLASE INHIBITORS AS IMMUNOSUPPRESSANTS” (priority 2003, published 2009).
pIC50: −log10 of the molar value.

Experiments:
[1] = test system: spleen cells from CBA and BALB/c mice; experiment: Allogeneic two-way mixed lymphocyte reaction (MLR); format: cell-based; settings: two-way mouse MLR, 3H-thymidine incorporation after four days, read-out: IC50 value (concentration required for 50% inhibition of proliferation)
Protocol: Cellular Assay: Allogeneic Mixed Lymphocyte Reaction (MLR)
The two-way MLR is performed according to standard procedures (J. Immunol. Methods, 1973, 2, 279 and Meo T. et al., Immunological Methods, New York, Academic Press, 1979, 227-39). Briefly, spleen cells from CBA and BALB/c mice (1.6×10^5 cells from each strain per well in flat bottom tissue culture microtiter plates, 3.2×10^5 in total) are incubated in RPMI medium containing 10% FCS, 100 U/ml penicillin, 100 μg/ml streptomycin (Gibco BRL, Basel, Switzerland), 50 μM 2-mercaptoethanol (Fluka, Buchs, Switzerland) and serially diluted compounds. Seven three-fold dilution steps in duplicates per test compound are performed. After four days of incubation 1 μCi ^3H-thymidine is added. Cells are harvested after an additional five-hour incubation period, and incorporated ^3H-thymidine is determined according to standard procedures. Background values (low control) of the MLR are the proliferation of BALB/c cells alone. Low controls are subtracted from all values. High controls without any sample are taken as 100% proliferation. Percent inhibition by the samples is calculated, and the concentrations required for 50% inhibition (IC50 values) are determined. In this assay, the agents of the invention have IC50 values in the range of 1 nM to 10 μM, preferably from 1 nM to 500 nM.

[2] = test system: Balb/c (H-2d) heart graft in C57BL/6J (H-2b) recipients; experiment: Acute rejection, heterotopic heart transplantation, graft survival; format: in vivo, mice; settings: versus saline, across dosing schedules
Protocol: Balb/c (H-2^d) mice are used as donor animals, and e.g. C57BL/6J (H-2^b) mice as recipients. The heart is removed from the donors according to known procedures and stored in cold saline (4° C.). The recipient animals are anaesthetised with isofluorane. […] Blood vessels are dissected free from the fascia for a length of 3-5 mm, ligating and dividing any small branches. Vessels are occluded, first proximally and then distally. An arteriotomy and venotomy is performed, and lumens are flushed with heparinised physiological saline. […] The distal ligature is removed, then the proximal ligature. The suture lines are checked for leakage. Then the graft is tethered retroabdobminally. The abdomen is flooded with warm saline (37° C.) and the wound is closed. Graft function is monitored daily by palpation of the abdomen. Rejection is concluded when the graft stops beating. Animals are treated with a 100 μL subcutaneous injection of saline or a solution of a HDAI, e.g. the compound of formula (I), e.g. N-hydroxy-3-[4-[[[2-(2-methyl-1H-indol-3-yl)-ethyl]-amino]methyl]phenyl]-2E-2-propenamide in lactate buffer pH 5.5 according to the dosing schedule shown in Table 1 below: […]

[3] = test system: heart graft, strain combination Lewis and BN; experiment: Rat heart transplantation, graft survival and histology; format: in vivo; settings: for effect of co-administration: test not named
Excerpt: Rat Heart Transplantation
The strain combination used is Male Lewis (RT1 haplotype) and BN (RT1 haplotype). The animals are anaesthetized using inhalation isofluorane. […] The aorta is ligated and divided distal to the first branch and the brachiocephalic trunk is divided at the first bifurcation. The left pulmonary artery is ligated and divided and the right side divided but left open. All other vessels are dissected free, ligated and divided and the donor heart is removed into iced saline.
The recipient is prepared by dissection and cross-clamping of the infra-renal abdominal aorta and vena cava. The graft is implanted with end-to-side anastomoses, using 10/0 monofilament suture, between the donor brachiocephalic trunk and the recipient aorta and the donor right pulmonary artery to the recipient vena cava. The clamps are removed, the graft tethered retroabdominally, the abdominal contents washed with warm saline and the animal is closed and allowed to recover under a heating lamp. Animals are treated with saline (control); an HDAI compound e.g. a compound of formula (I), e.g. N-hydroxy-3-[4-[[[2-(2-methyl-1H-indol-3-yl)-ethyl]-amino]methyl]phenyl]-2E-2-propenamide (“compound P1”); 40-O-(2-hydroxyethyl)-rapamycin (“compound P2”) prepared according to the methods described in WO 94/09010; FTY720 (“compound P3”) prepared according to Example 28 of WO 94/08943, or combinations of the each as indicated. Graft survival is monitored by daily palpation of the beating donor heart through the abdominal wall. Rejection is considered to be complete when heart beat stops. At that point the animal is euthanized and the transplanted heart is fixed for histology. […] The scale for grading for acute rejection is 1=slight; 2=moderate; 3=marked; 4=severe.

Cc1[nH]c2ccccc2c1CCNCc1ccc(/C=C/C(=O)NO)cc1 [Compound P1, N-hydroxy-3-[4-[[[2-(2-methyl-1H-indol-3-yl)-ethyl]-amino]methyl]phenyl]-2E-2-propenamide]
pIC50 [1]: 8.05 | increases graft survival [2]: 2-5 times the number of days | Median survival time (MST) ([3]; 0.3 mg/kg/d s.c., rat): 6 | Median survival time (MST) ([3]; 1.0 mg/kg/d s.c., rat): >28 | Survival (days) for each individual graft ([3]; 1.0 mg/kg/d s.c., rat): >28, >28, >28 days | effect of co-administration ([3]; co-administered with a mTOR inhibitor, e.g. 40-O-(2-hydroxyethyl)-rapamycin): synergistic effect | effect of co-administration ([3]; co-administered with a sphingosine 1-phosphate receptor agonist): synergistic effect

CO[C@H]1C[C@@H]2CC[C@@H](C)[C@@](O)(O2)C(=O)C(=O)N2CCCC[C@H]2C(=O)O[C@H]([C@H](C)C[C@@H]2CC[C@@H](OCCO)[C@H](OC)C2)CC(=O)[C@H](C)/C=C(\C)[C@@H](O)[C@@H](OC)C(=O)[C@H](C)C[C@H](C)/C=C/C=C/C=C/1C [Compound P2, 40-O-(2-hydroxyethyl)-rapamycin, reference compound]
Median survival time (MST) ([3]; 0.3 mg/kg/d p.o., rat): 7

CCCCCCCCc1ccc(CCC(N)(CO)CO)cc1 [Compound P3, FTY720, reference compound]
Median survival time (MST) ([3]; 0.1 mg/kg/d p.o., rat): 7.5
